Measurements: patent US20130337486A1, “MICROFLUIDIC DEVICE FOR HIGH-[…] GRADIENT AND DOSE RESPONSE STUDIES” (UCSD Tech Transfer Office, priority 2005, published 2013)

Tests used:
[1] = test system: Fus1-yEGFP; experiment: Fus1-yEGFP expression in yeast cell clusters exposed to a pheromone gradient; type: cell-based
Experimental: (§1) Using a device of the invention such as that shown in FIG. 1, analysis of phenotypic dose response in single cells was performed. Yeast cells were grown in YPD media to mid-log phase, and concentrated 10-fold before loading into syringes. The maximum pheromone concentrations used in the experiments was typically 75-100 nM, with varying minimum and maximum ranges for specific experiments. Pheromone diffusion was estimated by fluorescence imaging of the diffusion of Alexa Fluor dye 555 Hydrozide (Molecular Probes), with the MW of approximately 1150 Da (cf. 1684 Da MW of the a-factor), which was used at the concentration of 5 μM. […]
(§2) Images were acquired using the Nikon Eclipse TE2000-U inverted epi-fluorescence microscope, using 20× (evaluation of the gradient values), and 100× (oil immersion; evaluation of yEGFP fluorescence) objectives. Phase contrast images were taken with automatic exposure control, whereas most fluorescence measurements involved manually specified fixed exposure times. Typical gradient measurements using Alexa Fluor 555 dye were obtained using red filter (G-2 EIC, 540/25 excitation wavelength) at a fixed exposure time of 1 sec, whereas yEGFP-mediated fluorescence was obtained using the green filter (YEL-GFP HQ, 500/20 excitation wavelength) at fixed exposure times of 3 secs. […]

[2] = test system: a-Type Yeast; experiment: Phenotypic dose response of single yeast cells to a pheromone gradient in the microfluidic device; type: cell-based
Experimental: as §1, §2

α-factor
pheromone concentration range with clear bimodal nuclear Fus1-yEGFP response ([1]; six hours after exposure to 0-75 nM pheromone gradient): 15 to 45 nM | difference in Fus1-yEGFP expression between SM cells and cells of all other phenotypes in the bimodal region ([1]; six hours, 0-75 nM pheromone gradient, bimodal region): approximately 1.7 fold | phenotype after pre-incubation in high uniform pheromone concentration ([2]; 75 nM uniform pheromone for 4 hrs): shmoo formation by all cells | pheromone concentration range in which percentages of budded (BD), cell cycle arrest (CCA) and SM cells were comparable ([2]; pheromone gradients from 0 up to 100 nM in test chambers): 15 to 40 nM
